Results on eleven molecules are retold here after PMC11585513, “A novel ACE inhibitory peptide from Pelodiscus sinensis Wiegmann meat water-soluble protein hydrolysate” (Amino Acids, 2024).

For experiment [1], the system named is ACE. To be noted: cited from earlier work. The protocol: The kinetics of IEWEF inhibition of ACE were determined by Lineweaver–Burk plot (Fig. 1). […] We speculate that IEWEF interacts with the non-active domain of ACE to form an enzyme-inhibitor complex even in the presence of substrate (Xie et al. [2022]). A number of non-competitive ACE inhibitory peptides have been reported in recent years, including GVSLPEW, GYGGVSLPEW, and VGINYW from α-lactalbumin (W ...

For experiment [2], the system named is ACE. To be noted: at 0.5 mg/mL; ref Girgih et al. [2014]; cited from earlier work. The protocol: This is within the range (0.3 ~ 1000.0 µM) known to reduce blood pressure (Chen et al. [2022]). There are several reported ACE inhibitory peptides similar to IEWEF in their amino acid compositions, including IE, EW, IEW, EF, LEF and IEEAF. The peptides IE and EW are both ACE inhibitory peptides isolated from milk hydrolysates, although their IC50 values have not been reported thus far (van Platerink et al. [2008]).

Experiment [3] deals with T1, ACE (Oryctolagus cuniculus, UniProt P12822).
T1 construct: ACE (1U, derived from rabbit lung, CAS 207386-83-2); purchased Sigma-Aldrich Co. (St. Louis, MO, USA); host or cells: rabbit lung
T1 sequence (P12822 34-1310): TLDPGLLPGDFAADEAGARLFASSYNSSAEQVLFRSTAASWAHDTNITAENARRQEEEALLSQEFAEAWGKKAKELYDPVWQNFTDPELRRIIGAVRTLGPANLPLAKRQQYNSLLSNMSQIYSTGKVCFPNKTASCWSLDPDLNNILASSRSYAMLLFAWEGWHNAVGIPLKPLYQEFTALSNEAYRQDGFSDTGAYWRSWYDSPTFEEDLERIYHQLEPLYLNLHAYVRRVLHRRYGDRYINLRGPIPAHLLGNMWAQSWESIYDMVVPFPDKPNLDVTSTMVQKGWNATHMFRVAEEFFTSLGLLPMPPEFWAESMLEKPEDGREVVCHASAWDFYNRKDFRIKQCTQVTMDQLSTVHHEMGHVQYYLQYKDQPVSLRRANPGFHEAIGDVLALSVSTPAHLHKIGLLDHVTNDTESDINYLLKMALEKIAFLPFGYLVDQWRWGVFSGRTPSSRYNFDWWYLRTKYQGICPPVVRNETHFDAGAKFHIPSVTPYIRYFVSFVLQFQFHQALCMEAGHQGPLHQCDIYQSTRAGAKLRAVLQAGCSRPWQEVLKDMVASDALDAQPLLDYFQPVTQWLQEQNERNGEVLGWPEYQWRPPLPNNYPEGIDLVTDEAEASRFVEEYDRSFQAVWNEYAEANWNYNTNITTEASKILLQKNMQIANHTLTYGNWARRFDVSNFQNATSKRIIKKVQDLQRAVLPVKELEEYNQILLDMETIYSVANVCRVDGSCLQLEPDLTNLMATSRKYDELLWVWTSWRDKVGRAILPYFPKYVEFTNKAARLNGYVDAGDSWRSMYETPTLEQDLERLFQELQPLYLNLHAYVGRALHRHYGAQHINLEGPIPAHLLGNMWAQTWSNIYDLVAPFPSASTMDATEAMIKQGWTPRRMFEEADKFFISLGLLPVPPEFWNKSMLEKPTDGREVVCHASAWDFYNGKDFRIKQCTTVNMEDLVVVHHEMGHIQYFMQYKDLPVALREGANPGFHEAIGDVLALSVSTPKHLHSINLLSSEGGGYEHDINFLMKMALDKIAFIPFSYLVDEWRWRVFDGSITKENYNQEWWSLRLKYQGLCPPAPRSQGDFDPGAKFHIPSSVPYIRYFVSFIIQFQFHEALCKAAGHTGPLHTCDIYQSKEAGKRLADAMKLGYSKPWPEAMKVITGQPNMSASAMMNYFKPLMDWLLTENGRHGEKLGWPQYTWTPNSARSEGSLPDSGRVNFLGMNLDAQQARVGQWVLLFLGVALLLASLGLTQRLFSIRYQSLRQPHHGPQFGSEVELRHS
In words: In vitro assay of ACE inhibitory activity (HHL substrate, HPLC of hippuric acid). To be noted: for inhibition at 86.57 µM: 86.57 μmol/L; for inhibition at 86.57 µM / inhibition at 173.13 µM / inhibition at 346.26 µM / inhibition at 692.52 µM / inhibition at 2770.08 µM: read-out: ACE inhibitory activities (%); for inhibition at 173.13 µM: 173.13 μmol/L; for inhibition at 346.26 µM: 346.26 μmol/L; for inhibition at 692.52 µM: 692.52 μmol/L; for inhibition at 2770.08 µM: 2770.08 μmol/L. It counts as biochemical, rabbit. On the procedure: WSPM prepared in our previous work (Sun et al. [2022]) and stored at − 20 °C after freeze-drying was used for this study. ACE (1U, derived from rabbit lung, CAS […]), Hippuryl-L-histidyl-L-leucine (HHL, CAS […]), and hippuric acid (HA, CAS 495-69-2) were obtained from Sigma-Aldrich Co. (St. Louis, MO, USA). The reagents used for HPLC analysis were all HPLC grade, and all other reagents used were analytical grade. The amounts of each protein were quantified using the BCA Protein Assay Kit (Bio-Rad, USA). All the protein samples were packed separately and stored at − 80 °C.
In vitro assay of ACE inhibitory activities of the selected peptides ACE inhibitory activity was evaluated in vitro according to previous methods with some modifications (Liao et al. [2018]; Xie et al. [2022]). All of the assays were carried out in 0.1 mol/L sodium borate buffer (containing 0.3 mol/L NaCl at pH 8.3). For each peptide of interest, 40 µL ACE solution (100 mU/mL) was pre-incubated with the peptide (60 µL) at 37 °C for 10 min. Next, 40 µL HHL solution (5.40 mmol/L) was added to the solution at 37 °C, and the reaction was allowed to proceed for 15 min at 37 °C. Finally, 60 µL 1 mol/L HCl was added to terminate the reaction. A borate buffer only control processed using the above procedure was also included for use as a blank. To quantify the amount of HA (hippuric acid) generated, 20 µL of reaction solution (pre-filtered using a 0.45 µm microporous membrane) was analyzed by HPLC (Waters e2695, Milford, USA) on a C18 column (150 × 4.6 mm, 5 µm; ThermoFisher Scientific, USA). The run conditions were as follows: mobile phase, methanol/water/phosphoric acid solution (15:84.9:0.1, V/V/V); flow rate, 1.0 mL/min; UV detection wavelength, 228 nm. All experiments were conducted in triplicate. ACE inhibitory activity was calculated according to the following equation:1 ACE inhibitory activity\%=B-A/B×100\% where A represents the peak area of HA in the sample, and B represents the peak area of HA in the blank.

Where [4] appears, read: from Carapax Trionycis, ref Liao et al. [2018].
[5] abbreviates: from α-lactalbumin, ref Wei et al. [2022].

Read-outs that look alike come from different tables or passages of the source. Peptide text beside a SMILES is read from it.

Take KRER: the Inhibition mode result in experiment [1] (setting [4]) is listed as “non-competitive”.

As for LLYQEPLGPVR, in experiment [1] (from casein hydrolysate, ref Liu et al. [2020]), the Inhibition mode result is listed as “non-competitive”.

For IEEAF, the “Inhibitory activity against ACE” value in experiment [2] is “around 40%”.

Regarding KHMFK, the Inhibition mode entry in experiment [1] (setting [4]) is on record as “non-competitive”.

In the case of VGINYW, the Inhibition mode entry in experiment [1] (setting [5]) is “non-competitive”.

For GVSLPEW, the Inhibition mode result in experiment [1] (setting [5]) is given as “non-competitive”.

As to GYGGVSLPEW, the Inhibition mode entry in experiment [1] (setting [5]) is given as “non-competitive”.

Turning to PPLLFAAL, the Inhibition mode result in experiment [1] (from Takifugu flavidus, ref Su et al. [2021]) is given as “non-competitive”.

Regarding `CC[C@H](C)[C@H](N)C(=O)N[C@@H](CCC(=O)O)C(=O)N[C@@H](Cc1c[nH]c2ccccc12)C(=O)N[C@@H](CCC(=O)O)C(=O)N[C@@H](Cc1ccccc1)C(=O)O` [IEWEF, Ile-Glu-Trp-Glu-Phe] (H-IEWEF-OH), in experiment [3] (replicate 1), the inhibition at 86.57 µM was found to be 58.4%, the inhibition at 173.13 µM stood at 65.3%, the inhibition at 346.26 µM is 72.2% and the inhibition at 692.52 µM is 66.8%. For the same molecule, the inhibition at 2770.08 µM in experiment [3] (replicate 1) was found to be 91.2%. Further, in experiment [3] (replicate 2), the inhibition at 86.57 µM is 57.8%, the inhibition at 173.13 µM was 59.3%, the inhibition at 346.26 µM turned out to be 69.3% and the inhibition at 692.52 µM was 74.4%. In addition, the inhibition at 2770.08 µM in experiment [3] (replicate 2) was 91%. Besides, in experiment [3] (replicate 3), the inhibition at 86.57 µM worked out at 57.9%, the inhibition at 173.13 µM came out at 65%, the inhibition at 346.26 µM was 70.5% and the inhibition at 692.52 µM turned out to be 74.5%. The inhibition at 2770.08 µM in experiment [3] (replicate 3) amounted to 91%. Moreover, the IC50 in experiment [3] (ACE 100 mU/mL from rabbit lung, HHL 5.40 mmol/L, 0.1 mol/L sodium borate buffer with 0.3 mol/L NaCl pH 8.3, 10 min pre-incubation, 15 min at 37 °C, HPLC-UV 228 nm, mean ± SD, n = 3, read-out: IC50 value against ACE) was found to be 41.3 µM.

Turning to WGAP, the Inhibition mode result in experiment [1] (from rabbit meat, ref Chen et al. [2021]) is “non-competitive”.

Take KIGSRSRFEVT: in experiment [1] (from the shiitake mushroom, ref Paisansak et al. [2021]), the Inhibition mode result is on record as “non-competitive”.

The IC50 is the concentration that gives 50% inhibition.
